Data as given in PubChem BioAssay (NCI).
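In this assay, cells in 96-well plates receive the compound at five concentrations for 48 hours. Endpoints are linearly interpolated between the surrounding concentrations. At the GI50, growth is halved. TGI denotes the concentration required for complete inhibition of growth.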

Key:
Assay in all cases: NCI tumour cell line growth inhibition, 48 h
OVCAR-8 ovarian = test system: OVCAR-8 ovarian
TK-10 renal = test system: TK-10 renal
HCC-2998 colon = test system: HCC-2998 colon
NCI-H460 lung = test system: NCI-H460 lung
U251 CNS = test system: U251 CNS
EKVX NSCLC = test system: EKVX NSCLC
MOLT-4 leukemia = test system: MOLT-4 leukemia
PC-3 prostate = test system: PC-3 prostate
MDA-MB-231 breast = test system: MDA-MB-231 breast
SW-620 colon = test system: SW-620 colon

Row | Structure (SMILES) | TGI (OVCAR-8 ovarian) | TGI (TK-10 renal) | TGI (HCC-2998 colon) | TGI (NCI-H460 lung) | TGI (U251 CNS) | TGI (EKVX NSCLC) | TGI (MOLT-4 leukemia) | TGI (PC-3 prostate) | TGI (MDA-MB-231 breast) | TGI (SW-620 colon) | GI50 (OVCAR-8 ovarian) | GI50 (TK-10 renal) | GI50 (HCC-2998 colon) | GI50 (NCI-H460 lung) | GI50 (U251 CNS) | GI50 (MOLT-4 leukemia) | GI50 (PC-3 prostate) | GI50 (MDA-MB-231 breast) | GI50 (SW-620 colon) | GI50 (EKVX NSCLC)
1 | OCc1ccn2c1[C@@H](O)CC2 | > 100 µM | > 100 µM | > 100 µM | > 100 µM | > 100 µM | > 100 µM | > 100 µM | > 100 µM | > 100 µM | > 100 µM | – | – | – | – | – | – | – | – | – | –
2 | Cn1cc(C2=C(c3cccc(Br)c3)C(=O)NC2=O)c2ccccc21 | > 25 µM | > 25 µM | > 25 µM | > 25 µM | > 25 µM | – | > 25 µM | > 25 µM | > 25 µM | > 25 µM | 12.6 µM | > 18.6 µM | > 16 µM | 16.9 µM | 12.3 µM | 9.91 µM | 8.53 µM | 18.7 µM | 9.44 µM | –
3 | N#CC1=C(N)Oc2cc(O)ccc2C1c1cccc2ccccc12 (stereo not given) | 66.1 µM | 45.6 µM | 13.9 µM | 32.5 µM | 43 µM | > 100 µM | 31.3 µM | 29.2 µM | 30 µM | > 100 µM | 23.7 µM | 15.6 µM | 3 µM | 12.4 µM | 16.6 µM | 5.58 µM | 5.21 µM | 11.8 µM | 3.95 µM | 17 µM
4 | COc1cc2c3c(n(CCCOC(=O)C(F)(F)F)c(=O)c2cc1OC)-c1cc2c(cc1C3=O)OCO2 | 0.664 µM | > 100 µM | 0.539 µM | > 100 µM | 1.07 µM | > 63.8 µM | – | > 100 µM | > 49.9 µM | > 100 µM | – | 0.135 µM | 0.131 µM | 3 µM | < 0.01 µM | – | 0.0532 µM | 0.127 µM | – | 0.612 µM
5 | O=C(Nc1ccc(-n2ccc3c(NC(=O)c4ccccc4)nccc32)cc1)Nc1ccc(Cl)c(Cl)c1 | 3.7 µM | 5.29 µM | 3.65 µM | 1.78 µM | 1.92 µM | 44 µM | 8.56 µM | > 26.6 µM | 2.82 µM | 2.51 µM | 1.26 µM | 1.82 µM | 1.47 µM | 0.358 µM | 0.373 µM | 0.908 µM | 1.06 µM | 1.23 µM | 1.08 µM | 4.83 µM
6 | COc1ccc(O)c(C(=O)c2ccc(C(=O)N[C@H]3CCCNC[C@@H]3NC(=O)c3ccncc3)cc2)c1F | > 21.3 µM | > 25 µM | > 25 µM | > 25 µM | > 25 µM | – | 11.6 µM | > 25 µM | > 25 µM | > 25 µM | 5.5 µM | 0.684 µM | 9.74 µM | 10.5 µM | 8.12 µM | 1.38 µM | > 21.6 µM | > 25 µM | > 25 µM | –
7 | Cc1nc2sc3c(c2c(=O)[nH]1)CCCC3 | > 100 µM | > 100 µM | – | 86.1 µM | > 100 µM | > 100 µM | > 100 µM | > 100 µM | > 100 µM | > 100 µM | – | – | – | – | – | – | – | – | – | –
8 | CCn1c(=O)c2c(=O)c3c4c(oc3oc2c2ccccc21)C(=O)c1ccccc1C4=O | > 100 µM | > 100 µM | > 100 µM | > 100 µM | > 100 µM | > 100 µM | 2.12 µM | > 100 µM | – | > 100 µM | 3.3 µM | > 71.5 µM | > 100 µM | > 100 µM | > 27.1 µM | 0.366 µM | 8.71 µM | – | > 100 µM | 1.47 µM
9 | NC(=O)OCCn1cc(-c2nc(-c3c[nH]c4ncccc34)cs2)c2ccccc21 | – | 7.66 µM | 6.54 µM | 12.5 µM | 5.08 µM | 7.68 µM | 8.61 µM | 14.6 µM | 4.38 µM | 4.53 µM | – | 2.24 µM | 1.99 µM | 2.46 µM | 1.91 µM | 2.19 µM | 1.87 µM | 1.1 µM | 1.3 µM | 1.3 µM
10 | CCCOc1ccc2sc(NC(=O)OC)nc2c1 | > 100 µM | > 100 µM | > 100 µM | > 100 µM | > 100 µM | – | > 100 µM | > 100 µM | > 100 µM | > 100 µM | 5 µM | > 24.5 µM | 24.5 µM | 3.11 µM | 2.42 µM | 2.73 µM | 3.48 µM | > 100 µM | 0.544 µM | –
11 | O=C(CSC1CCc2ccccc21)N/N=C/c1ccccc1O (stereo not given) | > 100 µM | 73.8 µM | 35.4 µM | 14.6 µM | 42.5 µM | – | 56.7 µM | 75.8 µM | 39.6 µM | 81.4 µM | 3.66 µM | 6.1 µM | 5.59 µM | 3.4 µM | 2.92 µM | 3.79 µM | 3.89 µM | 3.98 µM | 5.66 µM | –
12 | CCN(Cc1ccccc1C)c1ccc(CO)c(Cl)c1 | 48.9 µM | 0.863 µM | 30.6 µM | 12.7 µM | 17.1 µM | – | 39.2 µM | 25.4 µM | 32 µM | 18.5 µM | 15.8 µM | 0.0944 µM | 14.4 µM | 0.821 µM | 2.84 µM | 15.8 µM | 12.1 µM | 13.7 µM | 3.74 µM | –
13 | COc1ccc(CCNC(=O)c2ccc(NC3=C(Cl)C(=O)N(Cc4ccccc4)C3=O)cc2)cc1OC | > 100 µM | 70.9 µM | – | > 100 µM | > 100 µM | > 100 µM | 4.78 µM | 27.8 µM | > 100 µM | – | 11.9 µM | 11.5 µM | – | 32 µM | 32.8 µM | 2.28 µM | 6.02 µM | 4.52 µM | – | 24.9 µM
14 | CC1=C(C(=O)Nc2ccc(Cl)c(Cl)c2)C(c2cccc(Oc3ccccc3)c2)NC(=O)N1 (stereo not given) | 22 µM | > 50 µM | – | 32.8 µM | 14.7 µM | 16.3 µM | > 50 µM | > 50 µM | 16.3 µM | 43.8 µM | 7.67 µM | 20.7 µM | – | 4.94 µM | 5.28 µM | > 50 µM | 16.3 µM | 6.15 µM | 12.8 µM | 5.21 µM
